According to article PMC5217330, “Impact of colistin plasma levels on the clinical outcome of patients with infections caused by extremely drug-resistant Pseudomonas aeruginosa” (BMC Infectious Diseases, 2017):
Read-outs that look alike come from different tables or passages of the source. Where a SMILES comes first, the peptide text is derived from it.

Columns and labels:
[1] = Colistin plasma concentration at steady state in patients treated with intravenous CMS (HPLC); format: in vivo, human
Protocol: CMS for injection was used and dosed in millions of IU throughout the study. The drug was administered intravenously in 100 mL of normal saline over 30 min in the commercially available colistimethate formulation for injection (GES GenéricosEspañoles®), with each vial containing 80 mg CMS (equivalent to 1 million IU of CMS and about 30 mg of colistin base activity). As the policy of our hospital, CMS is reserved for the treatment of infections due to bacteria that are resistant to carbapenems and other antipseudomonal antibiotics except colistin and, eventually, aminoglycosides. Dose selection was at the discretion of the responsible clinicians. CMS doses ranged from 1 to 3 million IU every 8 h (3–9 millions IU daily). The following dose adjustments were made according to the package insert’s recommendations in patients with impaired renal function: GFR ≥ 76 mL/min/1.73 m^2, 4–6 million IU daily in three doses; GFR 40 to 75 mL/min/1.73 m^2, 2–3 million IU daily in 2 doses; GFR 25–40 mL/min/1.73 m^2, 1.5–2 million IU daily divided into 1 or 2 doses; and GFR < 25 mL/min/1.73 m^2, 0.6–1 million IU daily every 36 h. No loading-dose was administered to any included patient.
Measurement of the plasma colistin concentration was performed at the fourth day of treatment, when was assumed that the colistin concentrations had reached the steady state. The colistin plasma trough concentrations (Cmin) were measured just before the administration of CMS. The maximum plasma concentrations (Cmax) were obtained 30 min after the end of the CMS infusion (1 h after the start of infusion). A specialized nurse performed extraction of blood. Samples were immediately placed in a portable refrigerator (4 °C) to be processed in a refrigerated centrifuge (4 °C) at the laboratory. Colistin concentrations in the plasma were determined using a validated high-performance liquid chromatography (HPLC) method as reportedby Li et al., with minor modifications as described previously by our group.
Following Couet et al., Cmin was chosen because it is more convenient from a practical view point and because due to the colistin pharmacokinetic behavior, there can be CMS hydrolysis to colistinafter sample extraction resulting in an overestimation of the real in vivo colistin plasma concentration. This phenomenon can be minimized when CMS plasma concentrations are lower what occurs at the end of the dosing interval (when the Cmin is measured). Throughout the present paper, we have used the term “average colistin concentration at steady state (Css)” to refer to the Cmin.

[2] = tested on: colistin-susceptible XDR P. aeruginosa; experiment: Clinical outcome (clinical cure, 30-day mortality) of patients with XDR P. aeruginosa infections treated with intravenous CMS; format: in vivo, human
Protocol: A prospective observational cohort study was conducted between January 2009 and January 2013 at a 450-bed teaching hospital in Barcelona, Spain. All patients who had microbiologically documented infections due to colistin-susceptible XDR-P.aeruginosa and were administered CMS for at least 72 h, were included in the study. Only microbiologically documented and clinically defined infections caused by colistin-susceptible XDR P. aeruginosa treated with colistin were considered. Acute bronchitis and tracheitis were excluded from the analysis due to the difficulty in differentiating true infection from colonization in patients with chronic obstructive pulmonary disease (COPD).
The primary end point was clinical cure, and the secondary 30-day all-cause mortality.
Clinical cure and failure were defined as resolution and persistence/worsening, respectively, of symptoms and signs of infection.
Thirty-day mortality was defined as death occurring within 30 days of beginning CMS treatment.
Clinical cure was defined as having resolved clinical signs and symptoms and/or no need for additional antibiotic therapy. Clinical failure was defined as an inadequate response to antibiotic therapy, with worsening, new/recurrent signs and symptoms or death.

[3] = in vivo
Protocol: The serum creatinine level and estimated glomerular filtration rate (GFR) were recorded at baseline, at the moment of colistin plasma extraction (day 4), on day 7 and at the EOT. […] The RIFLE criteria (Table 1) estimated with exclusion of the urinary output criterion, were used for the detection and stratification of acute kidney injury (AKI) [22]. AKI during CMS treatment was defined as a 1.5-fold or more increase in serum creatinine and/or a decrease in the GFR of 25% or more. These criteria needed to be fulfilled for at least 2 consecutive measurements 24 h apart during CMS treatment.

## CC[C@H](C)CCCCC(=O)N[C@@H](CCN)C(=O)N[C@H](C(=O)N[C@@H](CCN)C(=O)N[C@H]1CCNC(=O)[C@H]([C@@H](C)O)NC(=O)[C@H](CCN)NC(=O)[C@H](CCN)NC(=O)[C@H](CC(C)C)NC(=O)[C@@H](CC(C)C)NC(=O)[C@H](CCN)NC1=O)[C@@H](C)O [colistin] (HELM PEPTIDE1{[CC[C@H](C)CCCCC(=O)[*:2]].[Dab].T.[Dab].[Dab].[Dab].[dL].L.[Dab].[Dab].T}$PEPTIDE1,PEPTIDE1,5:R3-11:R2$$$V2.0)
[1]; all included patients n = 91, mean ± SD, SD
  Css/MIC: 3.43 ± 2.91
[1]; human, iv, day 4, 30 min after end of 30-min CMS infusion, plasma, HPLC, mean ± SD, SD, read-out: Cmax (maximum plasma concentration)
  Cmax: 1660 ± 1400 ng/mL
[1]; human, plasma, iv, day 4, just before administration of CMS, plasma, HPLC, mean ± SD, SD, read-out: Cmin (colistin plasma trough concentration)
  level at 96 h: 1710 ± 1420 ng/mL
[1]; human, plasma, iv, patients who achieved clinical cure, mean (SD), abstract, SD, read-out: Css
  level at 96 h: 1490 ng/mL
[1]; human, plasma, iv, patients who did not achieve clinical cure, mean (SD), p = 0.01, abstract, SD, read-out: Css
  level at 96 h: 2420 ng/mL
[1]; human, plasma, iv, patients who died n = 28, day 4 trough, plasma, HPLC, mean ± SD, P = 0.011 vs survived, read-out: Css
  level at 96 h: 2100 ng/mL
[1]; human, plasma, iv, patients who survived n = 63, day 4 trough, plasma, HPLC, mean ± SD, read-out: Css
  level at 96 h: 1400 ng/mL
[1]; patients who died n = 28, mean ± SD, P = 0.048 vs survived, SD
  Css/MIC: 4.2 ± 2.7
[1]; patients who survived n = 63
  Css > 1.25 (mg/L), patients: 28 (44.4) n (%)
[1]; patients who survived n = 63, mean ± SD, SD
  Css/MIC: 3.1 ± 3
[1]; patients with clinical cure n = 72, mean ± SD, SD
  Css/MIC: 3.13 ± 2.9
[1]; patients with clinical failure n = 19, mean ± SD, P = 0.03 vs cure, SD
  Css/MIC: 4.61 ± 2.86

## colistimethate sodium [CMS]
[2]; 13 patients died due to P. aeruginosa infection, n = 91
  infection-related mortality rate: 14.3%
[2]; 28 of 91 patients, i.v. CMS
  30-day all-cause mortality rate: 30.9%
[3]
  AKI RIFLE F at the EOT, patients: 11%
  AKI RIFLE F on day 7 of treatment, patients: 2.2%
  AKI RIFLE I at the EOT, patients: 29.7%
  AKI RIFLE I on day 7 of treatment, patients: 9.9%
  AKI RIFLE R at the EOT, patients: 13.2%
  AKI RIFLE R on day 7 of treatment, patients: 20.9%
  CMS dose modified because of AKI, patients: 17.5%
  GFR returned to baseline at the end of follow-up, patients: 35.1%
  Impairment of renal function during CMS treatment at the EOT, patients: 53.8%
  Impairment of renal function during CMS treatment on day 7, patients: 33%
  Patients with AKI at day 7, F (Failure): 2 (2.2) n (%)
  Patients with AKI at day 7, I (Injury): 9 (9.9) n (%)
  Patients with AKI at day 7, R (Risk): 19 (20.9) n (%)
  Patients with AKI at the EOT, F (Failure): 10 (11) n (%)
  Patients with AKI at the EOT, I (Injury): 27 (27.7) n (%)
  Patients with AKI at the EOT, R (Risk): 12 (13.2) n (%)
  persisted with some grade of impairment of renal function at the end of follow-up, patients: 2.1%
